Toxic doses and inconclusive results are not listed.
Tested on: P388 leukemia ip, CD2F1 mice, survival T/C
Experiment: NCI In Vivo Anticancer Drug Screen. Data for tumor model P388 Leukemia (intraperitoneal) in CD2F1 (CDF1) mice
Conditions: endpoint: median survival time, higher = longer survival
Outline: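 Mice carrying the transplanted tumor received test compound or vehicle. Survival was recorded in each group, and the value is the treated-group measurement divided by that of the vehicle-treated control group.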

[1] = dose: 50.0 mg/kg/injection, schedule: Q01DX009 (ip), vehicle: saline
[2] = dose: 100.0 mg/kg/injection, schedule: Q01DX009 (ip), vehicle: saline
[3] = dose: 50.0 mg/kg/injection, schedule: Q01DX009 (ip), vehicle: saline with Tween-80
[4] = dose: 100.0 mg/kg/injection, schedule: Q01DX009 (ip), vehicle: saline with Tween-80
[5] = dose: 200.0 mg/kg/injection, schedule: Q01DX009 (ip), vehicle: saline with Tween-80

CC12NC(=O)NC1(C)NC(=O)N2 (configuration not stated)
T/C [1]: 107 % of control | T/C [2]: 87 % of control | T/C (dose: 100.0 mg/kg/injection, schedule: Q04DX003 (ip), vehicle: saline): 103 % of control | T/C (dose: 200.0 mg/kg/injection, schedule: Q04DX003 (ip), vehicle: saline): 97 % of control

CC(C)(O)Cc1ccc(Cl)cc1
T/C (dose: 25.0 mg/kg/injection, schedule: Q01DX009 (ip), vehicle: saline with Tween-80): 99 % of control | T/C [3]: 105 % of control | T/C [4]: 108 % of control | T/C [5]: 105 % of control

COC(=S)NCCn1c([N+](=O)[O-])cnc1C
T/C (dose: 100.0 mg/kg/injection, schedule: Q01DX001 (ip), vehicle: saline with Tween-80): 110 % of control | T/C (dose: 200.0 mg/kg/injection, schedule: Q01DX001 (ip), vehicle: saline with Tween-80): 100 % of control | T/C (dose: 400.0 mg/kg/injection, schedule: Q01DX001 (ip), vehicle: saline with Tween-80): 108 % of control

CCCCCCCCCCCN(C)C
T/C (dose: 50.0 mg/kg/injection, schedule: Q01DX005 (ip), vehicle: saline with Tween-80): 105 % of control | T/C (dose: 100.0 mg/kg/injection, schedule: Q01DX005 (ip), vehicle: saline with Tween-80): 105 % of control

CC(C)(C)c1cc(C(=O)O)c(SSc2ccccc2)c(C(=O)O)c1
T/C (dose: 100.0 mg/kg/injection, schedule: Q04DX002 (ip), vehicle: Klucel (hydroxypropylcellulose) (HPC)): 105 % of control

Cn1c(COc2ccc(/C=N\N/C(N)=N/N=C/c3ccc(OCc4c[n+]5ccccc5n4C)cc3)cc2)c[n+]2ccccc12
T/C (dose: 12.5 mg/kg/injection, schedule: Q01DX005 (ip), vehicle: saline with Tween-80): 110 % of control | T/C (dose: 25.0 mg/kg/injection, schedule: Q01DX005 (ip), vehicle: saline with Tween-80): 112 % of control

COc1ccc(C(N)Cc2ccccc2)cc1 (configuration not stated)
T/C (dose: 50.0 mg/kg/injection, schedule: Q01DX005 (ip), vehicle: Klucel (hydroxypropylcellulose) (HPC)): 92 % of control | T/C (dose: 100.0 mg/kg/injection, schedule: Q01DX005 (ip), vehicle: Klucel (hydroxypropylcellulose) (HPC)): 100 % of control | T/C (dose: 200.0 mg/kg/injection, schedule: Q01DX005 (ip), vehicle: Klucel (hydroxypropylcellulose) (HPC)): 102 % of control

Cc1cc(Br)ccc1N=Cc1ccc(C=Nc2ccc(Br)cc2C)cc1
T/C [1]: 90 % of control | T/C [2]: 86 % of control | T/C (dose: 200.0 mg/kg/injection, schedule: Q01DX009 (ip), vehicle: saline): 92 % of control

CN(CCO)c1n[nH]c(=O)c2ccccc12
T/C [3]: 109 % of control | T/C [4]: 101 % of control | T/C [5]: 101 % of control

O=C1CSCC(=O)OCCOCCOCCO1
T/C (dose: 100.0 mg/kg/injection, schedule: Q04DX003 (ip), vehicle: suspension in saline): 104 % of control | T/C (dose: 200.0 mg/kg/injection, schedule: Q04DX003 (ip), vehicle: suspension in saline): 101 % of control | T/C (dose: 400.0 mg/kg/injection, schedule: Q04DX003 (ip), vehicle: suspension in saline): 101 % of control

C/C=C(\C)c1cc(=O)c2c(C)cc3c(c2o1)C(=O)c1c(O)c(C2CC(C)(N(C)C)C(O)C(C)O2)cc(C2CC(N(C)C)C(O)C(C)O2)c1C3=O (configuration not stated)
T/C (dose: 0.31 mg/kg/injection, schedule: Q01DX009 (ip), vehicle: saline): 100 % of control | T/C (dose: 0.62 mg/kg/injection, schedule: Q01DX009 (ip), vehicle: saline): 153 % of control | T/C (dose: 1.25 mg/kg/injection, schedule: Q01DX009 (ip), vehicle: saline): 91 % of control | T/C (dose: 2.0 mg/kg/injection, schedule: Q01DX009 (ip), vehicle: Klucel (hydroxypropylcellulose) (HPC)): 118 % of control | T/C (dose: 2.0 mg/kg/injection, schedule: Q01DX009 (ip), vehicle: saline): 154 % of control | T/C (dose: 3.0 mg/kg/injection, schedule: Q01DX009 (ip), vehicle: saline): 109 % of control | T/C (dose: 5.0 mg/kg/injection, schedule: Q01DX009 (ip), vehicle: saline): 94 % of control | T/C (dose: 6.25 mg/kg/injection, schedule: Q01DX009 (ip), vehicle: saline with Tween-80): 95 % of control

Nc1cc2ccccc2cc1NS(=O)(=O)N1CCCCC1
T/C (dose: 50.0 mg/kg/injection, schedule: Q01DX009 (ip), vehicle: acetone): 94 % of control | T/C (dose: 100.0 mg/kg/injection, schedule: Q01DX009 (ip), vehicle: acetone): 101 % of control | T/C (dose: 200.0 mg/kg/injection, schedule: Q01DX009 (ip), vehicle: acetone): 98 % of control

O=C(Nc1nc2cc(Cl)ccc2o1)c1ccc(C(=O)Nc2nc3cc(Cl)ccc3o2)cc1
T/C (dose: 100.0 mg/kg/injection, schedule: Q04DX003 (ip), vehicle: saline with Tween-80): 108 % of control | T/C (dose: 200.0 mg/kg/injection, schedule: Q04DX003 (ip), vehicle: saline with Tween-80): 94 % of control | T/C (dose: 400.0 mg/kg/injection, schedule: Q04DX003 (ip), vehicle: saline with Tween-80): 99 % of control

— PubChem BioAssay AID330 (DTP/NCI, 2004)
